# Test results from patent publication US20190160035A1, “METHOD OF TREATMENT” (QBIOTICS LIMITED, priority 2016, published 2019).
# Several values for one entry are separate records, joined by “and”; a condition that tells them apart may be missing. Equal values may be shown once.
# Key:
# [1] = tested on: cutaneous MCT or subcutaneous MCT; assay: Example 1: RECIST v.1.1 tumor response after a single intratumoral Compound 1 injection (0.4 mL/cm^3 of tumor) with prophylactic and supportive medications; format: in vivo, Canis lupus familiaris (dog)
# Text: Study dogs were managed similarly and with due regard for their welfare. Animals were enrolled in the study in accordance with instructions provided in Australian Pesticides and Veterinary Medicines Authority (APVMA) small-scale trials permit PER7250 (unregistered drug use). All animals were client-owned, treated by Australian registered veterinarians, and cases managed under their direct supervision. An enrolled dog could be removed from the study prior to study completion under the following circumstances: • 1. If at any time during the study, in the opinion of the attending veterinarian, the dog's welfare is at risk due to non-response of the tumor to Compound 1 treatment or due to a serious adverse event, the veterinarian could elect to withdraw the dog from the study. Following withdrawal, the dog's attending veterinarian could then administer supportive treatment and veterinary care that they deem is appropriate and in the best interest of the animal. • 2. The owner elected to voluntarily withdraw the dog from the study.
# Dogs were selected for the study if they met the criteria in Table 1 below.
# Compound 1 was prepared for intratumoral injection by preparation of a composition comprising 1 mg/mL Compound 1 in a 40% propylene glycol solution with 30 mM acetate buffer, pH 4.2. The dosage level was 0.4 mL/cm^3 of tumor.
# The drug was administered to each dog as 0.4 mL per cm^3 of tumor volume (40% v/v tumor) as determined on the day of dosing (Day 0). Tumor volume was determined using the modified ellipsoidal calculation=½×length×width×depth (cm) (Monga et al, 2000; Celikoglu et al, 2008).
# Wherever possible, the tumor and a 2 cm border surrounding the tumor was shaved prior to treatment. To deliver the drug, the needle of the dosing syringe was inserted into the tumor at the injection point and moved in a radial manner in 2- and 3-dimensions. Treatment administration was recorded on the individual “Case Report Form”. Study dogs were clinically examined at 2-4 and 24 hours, and 7 (±2), 14 (±2) and 28 (±2) days post-treatment (and unscheduled visits at attending veterinarian discretion).
# Each supervising veterinarian was given latitude to provide and record prophylactic and supportive medications as deemed appropriate for managing potential paraneoplastic events and tumor site necrosis following treatment with Compound 1. […]
# Determination of efficacy was based on objective tumor measurements made according to the Response Evaluation Criteria in Solid Tumors (RECIST) v.1.1 guideline (Eisenhauer et al, 2009) using the longest unidirectional tumor measurement (diameter). […] Measurements were recorded using digital calipers at pre-treatment and at 7(±2), 14(±2) and 28(±2) days post treatment. […]
# [2] = tested on: cutaneous MCT or subcutaneous MCT; assay: Example 4: long term follow up of Example 1 dogs for tumor recurrence; format: in vivo; on Tumor recurrence at case follow-up, approx. month 2 after last treatment: key: NTR = no tumor recurrence; TR = tumor recurrence; on Tumor recurrence at case follow-up, approx. month 3 after last treatment: key: NTR = no tumor recurrence; TR = tumor recurrence; on Tumor recurrence at case follow-up, approx. month 4 after last treatment: key: NTR = no tumor recurrence; TR = tumor recurrence; on Tumor recurrence at case follow-up, approx. month 5 after last treatment: key: NTR = no tumor recurrence; TR = tumor recurrence
# Procedure: The dogs of in Example 1, treated with 1.0 mg Compound 1 per mL in 40% propylene glycol solution (0.4 mL/cm^3 tumor), were followed up post-treatment.
# The attending veterinarian advised dog C03-T-04 enter a new treatment program for residual tissue mass treatment due to a putative immune deficiency, and dog C03-T-07 died on Day 4 post treatment.
# [3] = tested on: MCT (cutaneous and subcutaneous); assay: Example 5: Compound 1 injection with oral prednisolone and antihistamine co-therapy, RECIST v.1.1 tumor response; format: in vivo, Canis lupus familiaris (dog)
# Text: This study investigates the efficacy and safety of Compound 1 injection for MCT treatment in the presence of corticosteroids administered under defined clinical situations.
# Dogs were selected for the study if they met the criteria in Table 1 (Example 1) but where the dog has at least one MCT.
# Wherever possible, the tumor and a 2 cm border surrounding the tumor was shaved prior to treatment. To deliver the drug, the needle of the dosing syringe was inserted into the tumor at the injection point and moved in a radial manner in 2- and 3-dimensions with drug delivered to the tumor mass. Study dogs were clinically examined at 2-4 and 24 hours, and 7 (+2), 14 (+2) and 28 (+2) days post-treatment (and unscheduled visits at attending veterinarian discretion).
# Each supervising veterinarian was given latitude to provide and record prophylactic and supportive medications as deemed appropriate for managing potential paraneoplastic events and tumor site necrosis following Compound 1 treatment. However, prednisolone and antihistamines were used as co-therapy. Prednisolone therapy commenced on Day −1 and continued for a further 7 days. H1 and H2 antihistamine therapy (chlorpheniramine and famotidine respectively) commenced on the morning of drug treatment and continued for a further 6 days (see Table 23).
# RECIST v.1.1 results are summarised in Table 28 which also includes a measure of neoadjuvant prednisolone action (potential tumor shrinkage) between screening and immediate pre-treatment tumor evaluation. Sixteen (16) dogs and eighteen (18) tumors were treated. Raw data for RECIST assessment was collected on Day 0 (immediately pre-treatment) and on Day 28 for fifteen (15) cases. […] With the remaining three (3) cases (C05-T-18, C05-V-01, and C05-V-02), the dogs were not available on Day 28 for RECIST assessment. For dog C05-T-18, the injection site was measured as CR on Days 21 and 37. […] For dog C05-V-01, the injection site was measured as PR on Days 21 and 37 (55% and 60% RECIST reduction respectively). […] For dog […], due to the progressive nature of disease, the animal was removed from study on Day 21.
structure (smiles),measurement,setting,value
"C/C=C(\C)C(=O)O[C@@H]1[C@@H](C)[C@@]2(O)[C@H]([C@@H]3C(C)(C)[C@]13OC(=O)[C@@H](C)CC)[C@@H]1O[C@]1(CO)[C@@H](O)[C@]1(O)C(=O)C(C)=C[C@H]12 [Compound 1, 12-tigloyl-13-(2-methylbutanoyl)-6,7-epoxy-4,5,9,12,13,20-hexahydroxy-1-tigliaen-3-one]",Number of dogs with partial response (PR),"[1]; Day 28, 11 dogs available of 12 treated",3
same,Number of dogs with complete response (CR),"[1]; Day 28, 11 dogs available of 12 treated, 1.0 mg/mL, 0.4 mL/cm^3",6
same,Tumor cytology in the autopsied injection site,"[1]; dog C03-T-07, Day 4, personal correspondence with attending veterinarian",no tumor cytology was identified
same,RECIST classification,"[1]; one value per dog, Day 28, single intratumoral dose, 1.0 mg/mL, 0.4 mL/cm^3 tumor","PR (partial response (PR, at least 30% decrease in the longest diameter of target lesion))"
same,Time post treatment at which tumor recurrence was identified,"[2]; 196: dog C03-N-01 (approx. 6 months), 359: dog C03-T-02 (approx. 12 months)",196 days and 359 days
same,Time the dog remained tumor free post treatment,"[2]; dog C03-T-06, approx. 8 months, until euthanased for diabetes and kidney failure",265 days
same,Number of dogs with residual tumor mass on Days 28-29 post treatment (retreated),"[2]; dogs C03-N-03, C03-T-01, C03-T-03",3
same,Tumor recurrence post-repeat treatment,"[2]; dogs C03-N-03, C03-T-01, C03-T-03, examined out to 389, 339 and 346 days",None of these dogs exhibited tumor recurrence
same,Number of dogs treated successfully with a single treatment and no tumor recurrence within the duration of assessment,[2]; of ten dogs available for follow up,5
same,"Tumor recurrence at case follow-up, approx. month 1 after last treatment",[2]; one value per dog,NTR (3×) and TR (TR = tumor recurrence)
same,"Tumor recurrence at case follow-up, approx. month 2 after last treatment",[2]; one value per dog,NTR
same,"Tumor recurrence at case follow-up, approx. month 3 after last treatment",[2]; one value per dog,NTR
same,"Tumor recurrence at case follow-up, approx. month 4 after last treatment",[2]; one value per dog,NTR
same,"Tumor recurrence at case follow-up, approx. month 5 after last treatment",[2]; one value per dog,NTR
same,"Tumor recurrence at case follow-up, approx. month 6 after last treatment",[2]; one value per dog,NTR
same,"Tumor recurrence at case follow-up, approx. month 7 after last treatment",[2]; one value per dog,NTR
same,"Tumor recurrence at case follow-up, approx. month 9 after last treatment",[2]; one value per dog,NTR
same,"Tumor recurrence at case follow-up, approx. month 11 after last treatment",[2]; one value per dog,NTR
same,"Tumor recurrence at case follow-up, approx. month 12 after last treatment",[2]; one value per dog,TR (TR = tumor recurrence) and NTR (4×)
same,Repeat treatment required,"[2]; one value per dog, Example 1 dogs",Day 28 (2×) and Nil (7×) and Day 29
same,Share of cases with a CR RECIST result,[3]; 14 out of 18 cases,78%
same,Number of cases with progressive disease (PD),"[3]; Day 28, 15 cases assessed",1
same,Number of cases with complete response (CR),"[3]; Day 28, 15 cases assessed, prednisolone, chlorpheniramine, famotidine co-therapy",13
same,Tumor course beyond Day 7 post treatment,"[3]; dog C05-T-09, Patnaik Grade III cutaneous MCT",continued to grow
same,RECIST reduction,"[3]; dog C05-V-01, Day 21",55%
same,RECIST reduction,"[3]; dog C05-V-01, Day 37",60%
same,RECIST reduction of residual mass,"[3]; dog C05-V-01, Day 57",70%
same,RECIST result of injection site,"[3]; dog C05-V-01, Days 21 and 37","PR (partial response (PR, at least 30% decrease in the longest diameter of target lesion))"
same,Residual tumor after initial tumor reduction,"[3]; dog C05-V-02, vulvar Patnaik Grade III MCT",residual tumor mass was evident by Day 21
same,Number of cases with partial response (PR),[3]; of 18 cases enrolled,1
same,Number of cases with progressive disease,[3]; of 18 cases enrolled,2
same,Number of cases with a CR RECIST result,[3]; out of eighteen (18) treated cases,14
